Results on eight compounds are retold here after patent EP0696280B1, “SUBSTITUTED PYRROLIDIN-3-YL-ALKYL-PIPERIDINES USEFUL AS TACHYKININ ANTAGONISTS” (MERRELL PHARMACEUTICALS INC., priority 1993, dated 1994).

One experiment has as its target T1, NK1 receptor (Cavia porcellus, UniProt P30547).
T1 construct: Tissues or cells were homogenized with a Polytron in 15 volumes of 50 mM Tris-HCl buffer; tissue Keystone Biologicals, Cleveland, OH; host or cells: guinea pig lung membranes
The experiment is described as follows: Antagonism of iodinated tachykinin binding to NK1 receptor (125I-Bolton Hunter Lys-3 labeled substance P, guinea pig lung membranes). How it is done:
(§1) The NK1 receptor affinity of proposed tachykinin antagonists was devaluated in guinea pig lungs (Keystone Biologicals, Cleveland, OH), affinity for the NK2 receptor evaluated in HSKR-1 cells (which are mouse 3T3 fibroblasts expressing the human jejunal NK2 receptor) and NK-3 receptor affinity was evaluated in freshly collected guinea pig cerebral cortex. Tissues or cells were homogenized with a Polytron in 15 volumes of 50 mM Tris-HCl buffer (pH 7.4, 4°C) and centrifuged. The pellet was resuspended in Tris-HCl buffer and was centrifuged; the pellet was washed twice by resuspension. The final pellet was resuspended at a concentration of 40 mg/ml for tissues (guinea pig lung and cerebral cortex) and 20 mg/ml for cells in incubation buffer and remained at room temperature for at least 15 min prior to use. Receptor binding was initiated by addition of 250 µl membrane preparation in duplicate to 0.1 nM of the following radioligands: ^125I-Bolton Hunter Lys-3 labeled substance P; ^125iodohistidyl-1-neurokinin A; and ^125I-Bolton Hunter labeled Lys-4 eledoisin in a final volume of 500 µl of buffer containing 50 mM Tris-HCl (pH 7.4 at room temperature), 0.1% bovine serum albumin, 2 mM MnCl2, 40 µg/ml bacitracin, 4 µg/ml leupeptin and chymostatin, 1 µM thiorphan and various doses of the putative tachykinin antagonists. Incubations were performed at room temperature for 90 min (NK1 receptor assays) or 2 hr (NK2 and NK3 receptor assays); binding was terminated by addition of 50 mM Tris-HCl buffer (pH 7.4, 4°C) and filtration under vacuum through GF/B filters presoaked with 0.1% polyethyleneimine (NK1 receptor assays) or 0.5% bovine serum albumin (NK2 and NK3 receptor assays). Filter bound radioactivity was quantitated in a gamma counter. Nonspecific binding was defined as binding in the presence of 1 µM substance P, neurokinin A, or eledoisin. Specific binding was calculated by subtracting nonspecific binding from total binding. Competition of iodinated SP, NKA, or eledoisin binding by test compounds or standards was expressed as a percentage of this maximum competition. IC50 values (concentration required to inhibit 50% of receptor binding) were generated for each of the test compounds by nonlinear regression using an iterative curve fitting program (GraphPAD Inplot, San Diego, CA).

Experiment [1] has as its target T2, human jejunal NK2 receptor (Homo sapiens, UniProt P21452).
T2 construct: expressed in transfected cells; host or cells: HSKR-1 cells (mouse 3T3 fibroblasts)
T2 sequence (P21452 1-398): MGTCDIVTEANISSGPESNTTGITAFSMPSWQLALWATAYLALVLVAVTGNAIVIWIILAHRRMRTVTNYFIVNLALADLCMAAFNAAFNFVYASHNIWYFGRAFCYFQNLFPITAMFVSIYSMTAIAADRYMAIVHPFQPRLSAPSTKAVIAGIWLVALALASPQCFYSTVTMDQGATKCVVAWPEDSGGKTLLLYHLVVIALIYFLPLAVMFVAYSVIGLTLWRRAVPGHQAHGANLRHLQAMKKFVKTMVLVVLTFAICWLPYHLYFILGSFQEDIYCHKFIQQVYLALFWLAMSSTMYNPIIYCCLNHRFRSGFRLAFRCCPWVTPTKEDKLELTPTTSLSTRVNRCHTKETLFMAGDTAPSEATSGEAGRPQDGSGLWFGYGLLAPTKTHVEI
The experiment is described as follows: Antagonism of iodinated tachykinin binding to NK2 receptor (125iodohistidyl-1-neurokinin A, HSKR-1 cell membranes). The conditions noted are these: HSKR-1 cells (mouse 3T3 fibroblasts expressing human jejunal NK2 receptor); mean of several experiments; read-out: NK-2 IC50. How it is done: as §1

A further experiment addresses T3, NK-3 receptor (Cavia porcellus, UniProt P30098).
T3 construct: freshly collected guinea pig cerebral cortex; from tissue; host or cells: guinea pig cerebral cortex membranes
T3 sequence (P30098 1-440): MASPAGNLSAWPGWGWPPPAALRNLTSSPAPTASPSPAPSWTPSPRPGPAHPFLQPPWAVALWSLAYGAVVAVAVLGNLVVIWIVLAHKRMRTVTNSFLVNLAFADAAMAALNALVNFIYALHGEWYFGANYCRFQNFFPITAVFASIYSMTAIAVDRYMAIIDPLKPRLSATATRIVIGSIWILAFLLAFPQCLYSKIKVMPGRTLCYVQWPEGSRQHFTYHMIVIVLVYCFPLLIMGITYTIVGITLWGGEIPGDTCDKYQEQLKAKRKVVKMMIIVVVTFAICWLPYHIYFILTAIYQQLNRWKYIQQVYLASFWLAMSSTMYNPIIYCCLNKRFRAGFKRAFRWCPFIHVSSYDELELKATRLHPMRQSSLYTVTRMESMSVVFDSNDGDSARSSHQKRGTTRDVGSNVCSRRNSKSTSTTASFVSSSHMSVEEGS
The experiment is described as follows: Antagonism of iodinated tachykinin binding to NK-3 receptor (125I-Bolton Hunter labeled Lys-4 eledoisin, guinea pig cerebral cortex membranes). How it is done: as §1

Experiment [2] concerns capsaicin-induced respiratory effects. The experiment is described as follows: Antagonism of capsaicin aerosol induced respiratory effects in conscious guinea pigs (whole body plethysmography). The experiment is classed as in vivo, guinea pig. Particulars: for DYSPNEA ONSET / MAXIMUM PRESSURE INCREASE (mmH2O) / SRE NUMBER*: mean and SEM; for SRE NUMBER*: number of coughs/gasps during 19 min exposure. How it is done: In vivo experiments were performed using male Duncan Hartley guinea pigs (250-350g). Changes in conscious breathing patterns were monitored in four animals simultaneously using modified whole body plethysmography consisting of four small plexiglass boxes each connected to a reference box via Validyne DP 45-16 differential pressure transducers. The 4 boxes were equipped with an air supply line (also used for aerosol delivery) and an exhaust air line. Supply and exhaust lines were of the same length and narrow bore and arose from a common supply chamber and vented to a common exhaust chamber. This system was used to ensure that fluctuations in supply air and atmospheric pressure would remain in phase and be eliminated from the net signal by the differential pressure transducers. The analog pressure signals were digitalized via a Data Translation DT2821 A to D board. Data were collected at a rate of 100 samples/second/animal. Each cycle of pressure change was analyzed using the following parameters: rising and falling slope determined between minimum and maximum pressures, the ratio of rising over falling slope, and the magnitude of the change between initial trough pressure and peak cycle pressure. Using these values (and observing the animals) the pressure cycles were characterized into normal breaths, forced exhalations (apparent by abdominal heaving), significant respiratory events (SREs; usually coughs, less often sneezes or gasps which were characterized by transient, extremely large pressure increases which were distinguishable from noise) and movement/noise with a PCAT 286 running a System V UNIX operating system. Dyspnea was defined as a significant, sustained increase in plethysmograph pressure which was associated with an observable shift to labored breathing in the animal.
During the course of a typical experiment in which airway responsiveness to various bronchoconstricting agents was examined, aerosols were delivered for 19 min (0.33 ml/min) using a DeVilbiss Ultraneb 99 ultrasonic nebulizer and animals monitored during this time. Prior to nebulization, 1 min of resting breathing was collected to establish a baseline pressure. […] The vehicle for nebulization of all bronchoconstrictive agents was phosphate buffered saline (pH 7.4) which elicited no respiratory effects itself. Putative tachykinin antagonists were administered either (i.v.) 20 min prior to onset of aerosol exposure or orally 1 hour prior to onset (to guinea pigs after an overnight fast).
Capsaicin aerosol is known to promote release of the tachykinins SP and NKA from sensory nerves in the airways of guinea pigs which may then act upon NK1 and NK2 receptors, respectively to elicit respiratory effects. […]
Values are mean and SEM of data derived from number of animals indicated in parenthesis. Putative tachykinin antagonists were administered intravenously 20 min prior to initiation of capsaicin aerosol (0.001%). *SRE number indicates the number of coughs/gasps which occurred during the 19 min capsaicin exposure period.
Values are mean and SEM of data derived from number of animals indicated in parenthesis. Putative tachykinin antagonists were administered by oral gavage 1 hr prior to initiation of capsaicin aerosol (0.001%). *SRE number indicates the number of coughs/gasps which occurred during the 19 min capsaicin exposure period.

Setting [3] is: guinea pig lungs, mean of several experiments, read-out: NK-1 IC50.
[4] abbreviates: guinea pig cerebral cortex, mean of several experiments, read-out: NK-3 IC50.
The mark [5] stands for this setting: 25 mg/kg by oral gavage 1 hr prior to capsaicin aerosol (0.001%).
The mark [6] stands for this setting: 50 mg/kg by oral gavage 1 hr prior to capsaicin aerosol (0.001%).

Like-named read-outs stand apart in the source and are kept apart here.

T1 sequence (P30547 whole entry): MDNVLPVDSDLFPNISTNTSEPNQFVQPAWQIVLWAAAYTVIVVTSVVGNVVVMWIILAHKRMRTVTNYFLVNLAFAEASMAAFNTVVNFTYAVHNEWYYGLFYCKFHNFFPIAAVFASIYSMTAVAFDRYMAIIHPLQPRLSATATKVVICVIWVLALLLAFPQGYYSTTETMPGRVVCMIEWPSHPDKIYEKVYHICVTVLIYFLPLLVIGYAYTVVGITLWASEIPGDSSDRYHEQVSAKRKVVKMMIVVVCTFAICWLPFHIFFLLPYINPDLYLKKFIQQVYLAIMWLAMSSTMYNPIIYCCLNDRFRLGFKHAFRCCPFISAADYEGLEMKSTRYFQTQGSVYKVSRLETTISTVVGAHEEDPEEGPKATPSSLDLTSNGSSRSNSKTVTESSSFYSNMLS

One may read the IC50 as the concentration at which inhibition is half-maximal. For `O=C(c1ccccc1)N1CCC(CCN2CCC3(CC2)C(=O)NCN3c2ccccc2)(c2ccc(Cl)c(Cl)c2)C1` (stereo not drawn) [Example 10, 8-[2-[3-(3,4-dichloro-phenyl)-1-benzoyl-pyrrolidin-3-yl]-ethyl]-1-phenyl-1,3,8-triaza-spiro[4.5]-decane-4-one], the values for the IC50 (on NK1 receptor (setting [3]); in experiment [1]; at NK-3 receptor (setting [4])) were 255 nM, 11 nM and 1190 nM, respectively.

In the case of `COc1cccc(OC)c1C(=O)N1CCC(CCN2CCC(C(N)=O)(c3ccccc3)CC2)(c2ccc(Cl)c(Cl)c2)C1` (stereo not drawn) [Example 5, 1-[2-[3-(3,4-dichloro-phenyl)-1-(2,6-dimethoxy-benzoyl)-pyrrolidin-3-yl]-ethyl]-4-phenyl-piperidine-4-carboxylic acid amide], the half-inhibitory concentration (IC50) worked out at 20 nM at NK1 receptor, 41 nM in experiment [1] and 65 nM at NK-3 receptor. The “DYSPNEA INCIDENCE” value in experiment [2] (setting [5]) is given as 66.7% (6/9); in experiment [2] (setting [6]), 85.7% (6/7). Besides, the “DYSPNEA ONSET” value in experiment [2] (setting [5]) came out at 253 ± 47 s; in experiment [2] (setting [6]), 384 ± 85 s. The figures for the “MAXIMUM PRESSURE INCREASE (mmH2O)” value in experiment [2] (setting [5]) and in experiment [2] (setting [6]) were 0.7 ± 0.1 mmH2O and 0.5 ± 0.1 mmH2O, respectively. Further, the results for the “SRE NUMBER*” value in experiment [2] (setting [5]) and in experiment [2] (setting [6]) were 4.4 ± 1.2 and 4.9 ± 1.9, respectively.

For the compound `COC(=O)[C@@H](NC(=O)C1(c2ccccc2)CCN(CCC2(c3ccc(Cl)c(Cl)c3)CCN(C(=O)c3ccccc3)C2)CC1)[C@@H](C)O` (stereo partly drawn) [Example 7, 2-[(1-(2-[1-benzoyl-3-(3,4-dichloro-phenyl)-pyrrolidin-3-yl]-ethyl)-4-phenyl-piperidine-4-carboxyl)-amino]-3-hydroxy butyric acid methyl ester], the figures for the half-inhibitory concentration (IC50) (at NK1 receptor (setting [3]); in experiment [1]; on NK-3 receptor (setting [4])) were 240 nM, 10 nM and 202 nM, respectively.

Turning to `NC(=O)C1(c2ccccc2)CCN(CCC2(c3ccc(Cl)c(Cl)c3)CC(=O)N(Cc3ccccc3)C2)CC1` (stereo not drawn) [Example 11, 1-[2-[1-benzyl-3-(3,4-dichloro-phenyl)-5-oxo-pyrrolidin-3-yl]-ethyl]-4-phenyl-piperidine-4-carboxylic acid amide], the IC50 on NK1 receptor (setting [3]) is 196 nM; in experiment [1] it was 127 nM; at NK-3 receptor (setting [4]) it was 203 nM.

`NC(=O)C1(c2ccccc2)CCN(CCC2(c3ccc(Cl)c(Cl)c3)CCN(C(=O)c3ccccc3)C2)CC1` (stereo not drawn) [Example 1, 1-[2-[3-(3,4-dichloro-phenyl)-1-benzoyl-pyrrolidin-3-yl]-ethyl]-4-phenyl-piperidine-4-carboxylic acid amide]: the half-inhibitory concentration (IC50) in experiment [1] is 7 nM; on NK-3 receptor, 162 nM.

For the compound `COc1ccc(C(=O)N2CCC(CCN3CCC(C(N)=O)(c4ccccc4)CC3)(c3ccc(Cl)c(Cl)c3)C2)c(OC)c1` (stereo not drawn) [Example 2, 1-[2-[3-(3,4-dichloro-phenyl)-1-(2,4-dimethoxy-benzoyl)-pyrrolidin-3-yl]-ethyl]-4-phenyl-piperidine-4-carboxylic acid amide], the half-maximal inhibitory concentration (IC50) at NK1 receptor (setting [3]) came to 131 nM; in experiment [1], 34 nM; at NK-3 receptor, 65 nM.

Consider `COc1ccccc1CC(=O)N1CCC(CCN2CCC(C(N)=O)(c3ccccc3)CC2)(c2ccc(Cl)c(Cl)c2)C1` (stereo not drawn) [Example 4, 1-(2-[3-(3,4-dichloro-phenyl)-1-[2-(2-methoxy-phenyl)-acetyl]-pyrrolidin-3-yl]-ethyl)-4-phenyl-piperidine-4-carboxylic acid amide], for which the half-inhibitory concentration (IC50) in experiment [1] stood at 74 nM; on NK-3 receptor, 41 nM.

Regarding `COc1cccc(OC)c1C(=O)N1CCC(CCN2CCC3(CC2)C(=O)NCN3c2ccccc2)(c2ccc(Cl)c(Cl)c2)C1` (stereo not drawn) [Example 9, 8-[2-[3-(3,4-dichloro-phenyl)-1-(2,6-dimethoxy-benzoyl)-pyrrolidin-3-yl]-ethyl]-1-phenyl-1,3,8-triaza-spiro[4.5]decane-4-one], the half-inhibitory concentration (IC50) at NK1 receptor (setting [3]) was found to be 49 nM; in experiment [1], 118 nM; at NK-3 receptor (setting [4]), 183 nM.
